These results are taken from US20180353445A1, “METHODS AND COMPOSITIONS RELATING TO PROTEASOME INHIBITOR RESISTANCE” (Whitehead Institute for Biomedical Research, priority 2017, published 2018).

“Also recorded” adds a separate entry of the source.

Assay [1] has as its system T47D cells harboring a doxycycline inducible PSMD2 KD shRNA construct. The assay is described as follows: Viability of PSMD2 knockdown versus control T47D cells, dose response and combinations (CellTiter-Glo). Format: cell-based, human. The following applies: for sensitivity of PSMD2 KD cells versus control cells (cell viability): 1 ug/ml doxycycline 72 h, viability 72 hours after addition, CellTiter-Glo. As for the experimental part:
Cell viability was measured by CellTiter-Glot Luminescent Cell Viability Assay 72 hours after addition of the compounds to cells.
Cell viability was measured by CellTiter-Glo® Luminescent Cell Viability Assay 72 hours after addition of the compounds were added to cells.
Cell viability was measured by CellTiter-Glolk Luminescent Cell Viability Assay 72 hours after addition of the compounds to cells.
To directly test whether altered cellular metabolism can modulate the sensitivity of cancer cells to proteasome inhibitors, we engineered the breast cancer cell line T47D into Lo19S and increased OXPHOS states. Initially, we reconstituted the Lo19S state by transient suppression of the PSMD2 subunit of the 19S complex using an inducible shRNA.
To induce a high OXPHOS (Hi-OXPHOS) state, we changed the carbon source in the cell culture media from glucose to galactose, which is poorly fermentable. This method has been previously shown to drive glutamine utilization by mitochondria and to thus increase mitochondrial respiration (Gohil et al., 2010). […] We reasoned that the Hi-OXPHOS signature we identified in Lo19S patient tumors may cooperate with the Lo19S state to further promote the ability of the cells to withstand proteotoxic stress.
Cell viability—where indicated relative cell number following different drug treatment was conducted by plating cells at 1000 cells/well in 384 well plates. Indicated concentrations of compounds were added 24 hour after plating at least in triplicate for each condition. Viability was measured 72 hours after drug addition using cell titer-glo (Promega) according to manufactures protocol. Same protocol was applied for the experiments conducted for the Lo19S T47D, MCF7 and T47D in the context of altered carbon source only the cells were plated at 1000 cells/well in RPMI media (without glucose and with dialyzed serum) containing either 10 mM Glucose or lOmM galactose.
Background: ATP-based viability assays read luminescence as a measure of living cells.

The subject of the next assay is MM.1.S xenograft. As to the kind of experiment: Disseminated (orthotopic) multiple myeloma MM.1.S xenograft model and survival study. Format: in vivo, mouse. The following applies: for effect on tumor burden / tumor progression (BLI) / median OS: SCID mice, MM.1.S; for effect on tumor burden / tumor progression (BLI): bioluminescence imaging; for median OS: control median OS 36. As for the experimental part: To test this hypothesis, we established an orthotopic luciferized MM.1.S xenograft model by intravenous injection of MM.1.S cells into severe combined immunodeficient (SCID) mice. After engraftment, the mice were randomized into treatment groups, each carrying equivalent tumor burdens based on bioluminescence imaging (BLI). Mice were then treated with either vehicle alone, bortezomib, elesclomol or with the two drugs in combination.
GFP^+/Luc^+MM.1S cells were generated by retroviral transduction of the human MM1.S that was purchased from ATCC (Manassas, Va., USA)., using the pGC-GFP/Luc vector. Cells were authenticated by short tandem repeat DNA profiling.
Disseminated Multiple Myeloma Animal model and survival study—A total of 25 Female SCID-beige mice at 4-6 weeks of age (Taconic, USA) were utilized for the study. Tumors cells (3 million […] MM1S cells/mouse) were introduced into mice via intravenous injection and were allowed to grow until the LUC signal from their tumors reached 1×10^7 radians (photons/sec/cm^2/surface area). Tumor growth was monitored weekly by bioluminescence imaging (BLI), using an IVIS Spectrum-bioluminescent and fluorescent imaging system (Perkins Elmer). Mice were randomly attributed a group of treatment (n=5 per group). Control group was IV injected once a week 200 uL saline solution; Bortezomib (0.25 mg/kg, 100 uL) was IP injected first day of the week, once a week until death of the animal. Elesclomol (25 mg/kg, 100 uL) was subcutaneously injected every 3rd day of the week until death of the animal. Elesclomol+Bortezomib group were treated similarly to previous groups. The delayed group started the elesclomol treatment 14 days after the inclusion of the animal in the study. Endpoint of the study was dictated by either limb-paralysis of the animal or severe toxicity induced by the treatment as per Dana-Farber Animal policy.

The subject of the next assay is T47D cells. As to the kind of experiment: The glucose/galactose drug screen. Format: cell-based, human. The following applies: for relative viability change of cells grown in glucose versus galactose: 10 mM Glucose or Galactose, Selleck anti cancer and natural product libraries.
The target in a further assay is T1, FDX1 (Homo sapiens, UniProt P10109).
T1 construct: made in house
T1 sequence (P10109 62-184): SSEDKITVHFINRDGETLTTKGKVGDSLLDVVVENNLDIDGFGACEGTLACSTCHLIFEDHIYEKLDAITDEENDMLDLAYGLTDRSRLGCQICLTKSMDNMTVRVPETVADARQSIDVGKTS
As to the kind of experiment: In vitro Fe-S cluster assembly with reduced FDX1 (absorbance at 456 nm). It counts as biochemical. The source says:
FIGS. 47A-47C: Inhibition of Fe—S formation by elesclomol and variants (in-vitro). […] Note: “x(number) concentration” means that the indicated compound was present at 5 times the concentration of the enzyme.
(FIG. 53A) provides a schematic describing mitochondrial Fe—S cluster biosynthesis. The mitochondrial ISC (iron-sulfur cluster) core complex contains the scaffold protein ISCU and cysteine desulfurase (ACP-ISD11-NFS1)2. The latter catalyzes the conversion of cysteine to alanine and generates S° for iron sulfur cluster assembly. S° is reduced by FDX1. A [2Fe-2S] cluster is subsequently formed on ISCU. […] In vitro Fe—S cluster assembly was carried out with reduced. FDX1 as the reducing agent in the presence or absence of either 5× (green) or 10× (yellow) elesclomol (both relative to FDX1). Fe—S cluster formation was monitored by following the increase of absorbance at 456 nm. […] The red triangle denotes an NMR peak that became severely broadened. […] The [2Fe-2S] cluster in FDX1 is indicated by spheres.
The in vitro Fe—S cluster assembly was carried out with reduced FDX1 as the reducing agent and detected by following the increase of absorbance at 456 tun following the addition of either of 5× (green) or 10× (yellow, both relative to FDX1) compound-1. […] Fe—S formation was monitored by following the increase of absorbance at 456 nm. […] Cysteine desulfurase activity assay carried out with the indicated concentrations of elesclomol.

Regarding `CC1(C)CCC(c2ccc(Cl)cc2)=C(CN2CCN(c3ccc(C(=O)NS(=O)(=O)c4ccc(N[C@H](CCN5CCOCC5)CSc5ccccc5)c(S(=O)(=O)C(F)(F)F)c4)cc3)CC2)C1` [ABT-263, navitoclax], in assay [1], the “sensitivity of PSMD2 KD cells versus control cells (cell viability)” value was “more sensitive; also recorded: not sufficient, however, to induce a profound sensitization”.
Take `CC(C)C[C@H](NC(=O)[C@H](Cc1ccccc1)NC(=O)c1cnccn1)B(O)O` [bortezomib]: in the assay on MM.1.S xenograft, the “effect on tumor burden / tumor progression (BLI)” value is “modest effects on tumor burden” and the “median OS” value came to 40. Moreover, the “sensitivity of PSMD2 KD cells versus control cells (cell viability)” value in assay [1] is “increase in resistance”. The “increase in the EC90 on combining the Lo19S and Hi-OXPHOS states” value in assay [1] (T47D, PSMD2 suppression plus galactose medium) was 50 fold. In addition, the “increase of proliferation inhibition EC50 on inducing the Lo19S state” value in assay [1] (T47D, transient PSMD2 suppression versus control) is reported as about 4 fold. In addition, in the assay on T47D cells, the “relative viability change of cells grown in glucose versus galactose” value is listed as “strongest hits in this screen”.
In the case of `CN(NC(=O)CC(=O)NN(C)C(=S)c1ccccc1)C(=S)c1ccccc1` [elesclomol], on FDX1 (5x or 10x relative to FDX1), the “in vitro Fe-S cluster assembly with reduced FDX1” value is “inhibits in vitro Fe—S cluster assembly”. For the same compound, the “in vitro formation of Fe-S clusters mediated by FDX1” value at FDX1 (x5 concentration relative to enzyme) is recorded as “sufficient to induce an inhibitory effect”. In addition, in the assay with MM.1.S xenograft, the “effect on tumor burden / tumor progression (BLI)” value is listed as “modest effects on tumor burden” and the “median OS” value was 39. Moreover, in the assay on MM.1.S xenograft (versus control), the effect on survival entry is given as “modestly but significantly increased survival”. In addition, the “relative viability change of cells grown in glucose versus galactose” value in the assay with T47D cells was “cells that respire are predominantly sensitive; also recorded: preferentially targeted respiring cells; also recorded: more potent in cells in the Hi-OXPHOS state”. Moreover, the “number of concentrations at which respiring cells were preferentially targeted” value in the assay on T47D cells (galactose versus glucose) is given as 5 concentrations.
